Measurements published in patent publication US8257755B2, “Metabolic syndrome-improving agent and medicine, supplement, functional food and food additive containing the same” (ARKRAY, Inc., priority 2005, dated 2012).

Target: T1, PPARα (Homo sapiens, UniProt Q07869)
T1 construct: expressed in transfected cells; host or cells: CV-1 cells (African green monkey kidney)
T1 sequence (Q07869 1-468): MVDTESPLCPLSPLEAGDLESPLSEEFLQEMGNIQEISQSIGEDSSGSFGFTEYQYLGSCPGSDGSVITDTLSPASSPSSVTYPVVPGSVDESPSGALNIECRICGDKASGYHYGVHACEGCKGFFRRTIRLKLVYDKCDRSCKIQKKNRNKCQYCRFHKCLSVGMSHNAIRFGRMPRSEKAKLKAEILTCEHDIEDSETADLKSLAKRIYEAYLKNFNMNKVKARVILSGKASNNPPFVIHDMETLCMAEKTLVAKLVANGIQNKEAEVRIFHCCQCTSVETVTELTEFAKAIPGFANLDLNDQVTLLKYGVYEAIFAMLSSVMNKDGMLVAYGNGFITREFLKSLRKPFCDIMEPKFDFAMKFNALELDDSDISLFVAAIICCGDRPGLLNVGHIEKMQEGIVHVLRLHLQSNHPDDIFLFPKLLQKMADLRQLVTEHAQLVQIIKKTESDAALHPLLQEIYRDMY
Assay: PPARα ligand activity, GAL4-hPPARα luciferase reporter assay in CV-1 cells
Format: cell-based
Conditions: relative to non-treatment control (DMSO) = 100, average ± standard error
Method: CV-1 cells (cultured cells derived from kidneys of male African green monkeys) were implanted on 24-well culture plates so as to be […]/well and cultured at 37° C. in 5% CO2 for 24 hours. As a medium, DMEM (Dulbecco's Modified Eagle Medium; manufactured by GIBCO) containing 10% FBS (fetal bovine serum) and a 10 mg/mL penicillin streptomycin solution was used. Using the Lipofectamine system (trade name; manufactured by Invitrogen Corporation), pM-hPPARγ and p4×UASg-tk-luc were transfected. The above-noted pM-hPPARγ was a chimeric protein-expression plasmid binding GAL4 gene (amino acid sequence 1-147) and human PPARγ ligand-binding site gene (amino acid sequence 204-505), whereas the above-noted p4×UASg-tk-luc was a reporter plasmid containing four copies of a responsive element (UAS) of GAL 4 upstream of a luciferase gene. About 24 hours after the transfection, samples of bergamottin at respective concentrations (0.1, 1.0, 10, 50 and 100 μM) were added to the above-described media, followed by 24 hour incubation. The above-noted samples were prepared by dissolving bergamottin in dimethyl sulfoxide (DMSO). Instead of the above-noted sample, DMSO was used for non-treated control media. After the incubation, measurement was made using a Dual-Luciferase Reporter Gene Assay system (trade name; manufactured by Promega Corporation).
Similarly to the measurement group, as a control group, pM (a plasmid from which PPARγ ligand-binding site gene was removed) was used for measurement instead of pM-hPPARγ. For each sample, the ratio between average luminescence intensities of the measurement group and the control group (n=4) (measurement group/control group) was calculated, and an activity relative to the non-treatment control was determined as the PPARγ ligand activity of the sample.
The PPARα ligand activity of bergamottin was measured similarly to Example 1 except that pM-hPPARα was used instead of pM-hPPARγ and the bergamottin concentrations were set to 0.1, 1.0, 5.0, 10, 20, 50 and 80 μM.

SMILES: CC(C)=CCC/C(C)=C/COc1c2ccoc2cc2oc(=O)ccc12 [Bergamottin, bergamottin]
- PPARα ligand activity (0.1 μM): 95 ± 12.9
- PPARα ligand activity (1.0 μM): 92 ± 8.0
- PPARα ligand activity (5.0 μM): 118 ± 6.1
- PPARα ligand activity (10 μM): 194 ± 15.0
- PPARα ligand activity (20 μM): 350 ± 25.5
- PPARα ligand activity (50 μM): 622 ± 79.6
- PPARα ligand activity (80 μM): 558 ± 39.4
